Measured values taken from patent US20040033963A1, “Urea composition” (priority 2002, published 2004).

Test: Antioxidant screening: prevention or retardation of air oxidation of anthralin, hydroquinone or banana peel
Conditions: screening methods: air oxidation of anthralin
Experimental: The antioxidant property of some hydroxyacids, polyhydroxy acids and lactones are determined as follows. Oxidation by definition is removal of electrons or addition of oxygen. An antioxidant can be defined as a substance capable of preventing or inhibiting oxidation, or capable of disposing, scavenging, or suppressing formation or actions of peroxide, superoxide or free radicals. We have developed three simple assays to determine if a substance is an antioxidant or not. The antioxidant property is determined by using one of the following screening methods: prevention or retardation of air oxidation of (a) anthralin, (b) hydroquinone, or (c) banana peel. A freshly prepared anthralin solution or cream is bright yellow, and an air oxidized one is brownish or black. A hydroquinone solution or cream is colorless or white color, and an air-oxidized one is brownish or black. A freshly peeled banana peel is light yellow in color, and an oxidized one ranges in color from tan, dark tan, brown to brownish black.
Known antioxidants such as vitamin C and N-acetylcysteine may be used as the positive control in these screening methods.
For `O=C(O)[C@H](O)[C@@H](O)[C@H](O)[C@H](O)CO` [gluconic acid], the antioxidant property was “antioxidants”.
For `O=C(O)CC(C(=O)O)C(O)C(=O)O` (stereo not shown) [isocitric acid], the antioxidant property was “antioxidants”.
With `O=C1O[C@H](CO)[C@@H](O)[C@H]1O` [ribonolactone] the antioxidant property was “antioxidants”.
In the case of `O=C(O)C(O)C(=O)O` [tartronic acid], the antioxidant property is reported as “antioxidants”.
In the case of `O=C1O[C@@H]([C@H](O)CO)[C@H](O)[C@H]1O` [galactonolactone], the antioxidant property is reported as “antioxidants”.
For `O=C1O[C@@H]([C@H](O)[C@H](O)CO)[C@@H](O)C1O` (stereo partly shown) [glucoheptonolactone], the antioxidant property was “antioxidants”.
In the case of `O=C(O)[C@@H](O)[C@H]1OC(=O)[C@H](O)[C@H]1O` [glucarolactone], the antioxidant property is reported as “antioxidants”.
For `O=C[C@H](O)[C@H]1OC(=O)[C@@H](O)[C@H]1O` [glucuronolactone], the antioxidant property was “antioxidants”.
For `O=C(O)CC(O)(CC(=O)O)C(=O)O` [citric acid], the antioxidant property was “antioxidants”.
With `O=C1O[C@H]([C@@H](O)CO)C(O)=C1O` [ascorbic acid] the antioxidant property was “antioxidants”.
In the case of `O=C1O[C@H](CO)[C@@H](O)[C@H](O)[C@H]1O` [gluconolactone], the antioxidant property is reported as “antioxidants”.
With `O=C(O)CC(O)C(=O)O` (stereo not shown) [malic acid] the antioxidant property was “antioxidants”.
With `O=C1O[C@H]([C@H](O)CO)C(O)=C1O` [isoascorbic acid] the antioxidant property was “antioxidants”.
